Results from ChEMBL document CHEMBL1135011, “Isolation and antimalarial activity of peroxydisulfate oxidation products of primaquine” (Bioorg Med Chem Lett, 2002).

What was measured:
Mus musculus [1] = experiment: Tested for in vivo gametocytocidal activity against Plasmodium yoelii infected mice (1), on intraperitoneal dose of 10 mg/kg at +24h of mosquito feeding; Activity = No of Oocytes for infectivity; format: functional
Mus musculus [2] = organism: Mus musculus; experiment: Activity by comparing the number of oocytes on midgets of mosquitoes fed on drug treated on mice (1) with those of insects fed on untreated animals at 6 hr of mosquito feeding; 16/20; format: functional
Mus musculus [3] = organism: Mus musculus; experiment: Activity by comparing the number of oocytes on midgets of mosquitoes fed on drug treated on mice (1) with those of insects fed on untreated animals at 24 hr of mosquito feeding; 10/12; format: functional
Mus musculus [4] = organism: Mus musculus; experiment: Activity by comparing the number of oocytes on midgets of mosquitoes fed on drug treated on mice (2) with those of insects fed on untreated animals at -1h of mosquito feeding; 5/15; format: functional
Mus musculus [5] = experiment: Gametocytocidal activity against Plasmodium yoelii infected mice (2) on intraperitoneal dose of 10 mg/kg at 24 hr of mosquito feeding was determined and average of oocyst determined to find infectivity; format: functional
Mus musculus [6] = organism: Mus musculus; experiment: Activity by comparing the number of oocytes on midgets of mosquitoes fed on drug treated on mice (1) with those of insects fed on untreated animals at -1h of mosquito feeding; 18/20; format: functional
Mus musculus [7] = organism: Mus musculus; experiment: Activity by comparing the number of oocytes on midgets of mosquitoes fed on drug treated on mice (2) with those of insects fed on untreated animals at -1h of mosquito feeding; 13/15; format: functional
Mus musculus [8] = experiment: Gametocytocidal activity against Plasmodium yoelii infected mice (2) on intraperitoneal dose of 10 mg/kg at -1h of mosquito feeding was determined and average of oocyst determined to find infectivity; format: functional
Plasmodium falciparum [9] = experiment: (§1) Effective concentration for gametocidal activity against Plasmodium falciparum FDL-HD; format: functional, organism-based
Plasmodium falciparum [10] = experiment: (§2) Effective concentration for schizonticidal activity against Plasmodium falciparum FDL-HD; format: functional
Mus musculus [11] = experiment: Tested for in vivo gametocytocidal activity against Plasmodium yoelii infected mice, on intraperitoneal dose of 10 mg/kg at -1h of mosquito feeding; Activity = No of Oocytes for infectivity; format: functional
Mus musculus [12] = experiment: Tested for in vivo gametocytocidal activity against Plasmodium yoelii infected mice (1), on intraperitoneal dose of 10 mg/kg at +6h of mosquito feeding; Activity = No of Oocytes for infectivity; format: functional
Plasmodium falciparum [13] = experiment: as §1; format: functional
Plasmodium falciparum [14] = experiment: as §2; format: functional, organism-based
Mus musculus [15] = organism: Mus musculus; experiment: Activity by comparing the number of oocytes on midgets of mosquitoes fed on drug treated on mice (2) with those of insects fed on untreated animals at -1h of mosquito feeding; 12/15; format: functional
Mus musculus [16] = experiment: Gametocytocidal activity against Plasmodium yoelii infected mice (2) on intraperitoneal dose of 10 mg/kg at 6 hr of mosquito feeding was determined and average of oocyst determined to find infectivity; format: functional
Mus musculus [17] = organism: Mus musculus; experiment: Activity by comparing the number of oocytes on midgets of mosquitoes fed on drug treated on mice (2) with those of insects fed on untreated animals at -1h of mosquito feeding; 16/20; format: functional
Mus musculus [18] = experiment: Gametocytocidal activity against Plasmodium yoelii infected mice (2) on intraperitoneal dose of 10 mg/kg at -1h of mosquito feeding was determined and average of oocysts determined to find infectivity; format: functional
Mus musculus [19] = organism: Mus musculus; experiment: Activity by comparing the number of oocytes on midgets of mosquitoes fed on drug treated on 1 mice with those of insects fed on untreated animals at -1h of mosquito feeding; 15/15; format: functional
Mus musculus [20] = organism: Mus musculus; experiment: Activity by comparing the number of oocytes on midgets of mosquitoes fed on drug treated on 1 mice with those of insects fed on untreated animals at 24 hr of mosquito feeding; 0/20; format: functional
Mus musculus [21] = experiment: Gametocytocidal activity against Plasmodium yoelii infected mice (3) on intraperitoneal dose of 10 mg/kg at -1h of mosquito feeding was determined and average of oocysts determined to find infectivity; format: functional
Mus musculus [22] = organism: Mus musculus; experiment: Activity by comparing the number of oocytes on midgets of mosquitoes fed on drug treated on mice (2) with those of insects fed on untreated animals at 6 hr of mosquito feeding; 0/20; format: functional
Mus musculus [23] = organism: Mus musculus; experiment: Activity by comparing the number of oocytes on midgets of mosquitoes fed on drug treated on mice (2) with those of insects fed on untreated animals at 24 hr of mosquito feeding; 0/20; format: functional
Mus musculus [24] = organism: Mus musculus; experiment: Activity by comparing the number of oocytes on midgets of mosquitoes fed on drug treated on mice (3) with those of insects fed on untreated animals at 6 hr of mosquito feeding; 0/10; format: functional
Mus musculus [25] = organism: Mus musculus; experiment: Activity by comparing the number of oocytes on midgets of mosquitoes fed on drug treated on mice (3) with those of insects fed on untreated animals at -1h of mosquito feeding; 8/11; format: functional
Mus musculus [26] = organism: Mus musculus; experiment: Activity by comparing the number of oocytes on midgets of mosquitoes fed on drug treated on 1 mice with those of insects fed on untreated animals at 6 hr of mosquito feeding; 0/20; format: functional
Mus musculus [27] = organism: Mus musculus; experiment: Activity by comparing the number of oocytes on midgets of mosquitoes fed on drug treated on 1 mice with those of insects fed on untreated animals at -1h of mosquito feeding; 18/20; format: functional

| SMILES | IC50 (Plasmodium falciparum [9]) | IC90 (Plasmodium falciparum [10]) | Activity (Mus musculus [11]) | IC90 (Plasmodium falciparum [13]) | IC50 (Plasmodium falciparum [14]) | also measured |
| --- | --- | --- | --- | --- | --- | --- |
| COc1cc(NC(C)CCCN)c2ncccc2c1-c1c(OC)cc(NC(C)CCCN)c2ncccc12 (stereo unspecified) | 0.036 ug well-1 | 0.19 ug well-1 | >300 | 0.062 ug well-1 | 0.031 ug well-1 | Activity (Mus musculus [1]): >300; Ratio (Mus musculus [2]): 16; Ratio (Mus musculus [3]): 10; Ratio (Mus musculus [4]): 5; Activity (Mus musculus [5]): 68.33; Ratio (Mus musculus [6]): 18; Ratio (Mus musculus [7]): 13; Activity (Mus musculus [8]): 260.3; Activity (Mus musculus [12]): >300; Ratio (Mus musculus [15]): 12; Activity (Mus musculus [16]): 221.3 |
| COc1cc(NC(C)CCCN)c2ncccc2c1NC(C)CCCN (stereo unspecified) | 0.026 ug well-1 | 0.235 ug well-1 | 315 | 0.055 ug well-1 | 0.046 ug well-1 | Ratio (Mus musculus [17]): 16; Activity (Mus musculus [18]): 240; Ratio (Mus musculus [19]): 15; Ratio (Mus musculus [20]): 0; Activity (Mus musculus [21]): 185; Ratio (Mus musculus [22]): 0; Ratio (Mus musculus [23]): 0; Ratio (Mus musculus [24]): 0; Ratio (Mus musculus [25]): 8; Ratio (Mus musculus [26]): 0 |
| COc1c(O)c(NC(C)CCCN)c2ncccc2c1-c1c(OC)c(O)c(NC(C)CCCN)c2ncccc12 (stereo unspecified) | > 150 ug well-1 | 1.75 ug well-1 |  | >150 ug well-1 | 0.49 ug well-1 |  |
| CC(CCCN)N(C(C)CCCN)C(C)CCCN (stereo unspecified) | 0.115 ug well-1 | 0.245 ug well-1 |  | 0.38 ug well-1 | 0.155 ug well-1 |  |
| CC(CCCN)Nc1c(O)c(O)c(NC(C)CCCN)c2ncccc12 (stereo unspecified) | > 150 ug well-1 | >50 ug well-1 |  | >150 ug well-1 | > 50 ug well-1 |  |
| CCN(CC)CCCC(C)Nc1ccnc2cc(Cl)ccc12 (stereo unspecified) [CHLOROQUINE] |  | 0.015 ug well-1 |  |  | 0.011 ug well-1 |  |
| COc1cc(NC(C)CCCN)c2ncccc2c1 (stereo unspecified) [PRIMAQUINE] | 0.115 ug well-1 |  | 280.7 | 0.38 ug well-1 |  | Ratio (Mus musculus [20]): 0; Ratio (Mus musculus [26]): 0; Ratio (Mus musculus [27]): 18 |
